Test results: patent US10028961B2, “Therapeutically active compounds and their methods of use” (AGIOS PHARMACEUTICALS, INC., priority 2013, dated 2018)
Read-outs that look alike come from different tables or passages of the source.

What was measured:
[1] = biological target: IDH1 wt/IDH1 R132H heterodimer (Homo sapiens (Human), UniProt O75874, R132H); assay: In vitro assay for IDH1m R132H inhibitors, IDH1 wt/IDH1 R132H heterodimer, NADPH depletion (diaphorase/resazurin); format: biochemical
Summary of the method: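 Purified IDH1wt-his/IDH1R132H-flag heterodimer (sf9 co-expression) pre-incubated 1 hr at room temperature with compound and NADPH before α-KG addition. Remaining NADPH read by diaphorase/resazurin conversion to fluorescent resorufin, 5 min at 25° C. Compounds diluted 1:50 from DMSO; IC50 determined.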

[2] = biological target: IDH1-R132H homodimer enzyme (Homo sapiens (Human), UniProt O75874, R132H); assay: In vitro assay IDH1-R132H homodimer, NADPH depletion assay with NADPH/NADP preincubation; format: biochemical; settings: 5 μM NADPH and 37.5 μM NADP
Summary of the method: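 Conversion of alpha-ketoglutarate to 2-hydroxyglutarate tracked by NADPH depletion. Reaction started with 5 mM alpha-ketoglutarate plus NADPH substrate mix (50 μl total), 60 min at room temperature. Leftover NADPH quantified via diaphorase/resazurin fluorescence.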

[3] = system: U87MG pLVX-IDH2 R140Q-neo cells; assay: U87MG pLVX-IDH2 R140Q-neo cell based assay, 2-HG by LC-MS; settings: Homo sapiens, U-87 MG
[4] = biological target: IDH1-R132C homodimer enzyme (Homo sapiens (Human), UniProt O75874, R132C); assay: In vitro assay IDH1-R132C homodimer, NADPH depletion assay with NADPH/NADP preincubation; format: biochemical; settings: 5 uM NADPH and 28.75 uM NADP, read-out: IDH R132C NADPH/NADP IC50
Experimental: The following describes the experimental procedures that can be used to obtain data on columns 3 and 5 of Table 5.
A test compound is prepared as 10 mM stock in DMSO and diluted to 50× final concentration in DMSO, for a 50 μl reaction mixture. IDH enzyme activity converting alpha-ketoglutarate to 2-hydroxyglutaric acid is measured using a NADPH depletion assay. In the assay the remaining cofactor is measured at the end of the reaction with the addition of a catalytic excess of diaphorase and resazurin, to generate a fluorescent signal in proportion to the amount of NADPH remaining. […] The reaction is started with the addition of 10 μl of Substrate Mix ([…], 5 mM alpha-ketoglutarate, in Assay Buffer) and the mixture is incubated for 60 minutes at room temperature.
The concentration of alpha-ketoglutarate in the Substrate Buffer is 1 mM.

IDH2 R140Q [5] = biological target: T1, IDH2 R140Q (Homo sapiens (Human), UniProt P48735, R140Q); assay: In vitro assay for IDH2m R140Q inhibitors, cofactor depletion assay; format: biochemical; settings: IDH2 R140Q enzyme
Summary of the method: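 Remaining cofactor measured fluorimetrically: diaphorase/resazurin Stop Mix […], halting the reaction. Before that, mutant enzyme and compound sat 1 h at RT, then substrate mix (4 μM NADPH, 1.6 mM α-KG) was added for 16 h at RT.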

[6] = system: Neurosphere cells (TS603); assay: Cellular assay for IDH1m R132H inhibitors, 2-HG by LC-MS in neurosphere cells (TS603); format: cell-based; settings: 2-HG in media at 48 hours
Summary of the method: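 TS603 neurosphere cells in NeuroCult medium were dosed with compound (0.25% DMSO final) at 37 C, 5% CO2. After 48 hours, medium 2-HG was measured by LC-MS. At 72 hours, viability was read by CellTiter-Glo luminescence.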

IDH2 R140Q [7] = biological target: T1, IDH2 R140Q; assay: In vitro assay for IDH2m R140Q inhibitors, cofactor depletion assay, 16 hr preincubation with NADPH/NADP; format: biochemical; settings: read-out: IDH2 R140Q 16 hr NADPH/NADP IC50; 16 hrs preincubation with enzyme, 5 uM NADPH and 750 uM NADP
Excerpt: The following describes the experimental procedures used to obtain data on column 6 of Table 5.
The reaction is terminated by the addition of a second enzyme, diaphorase, and a corresponding substrate, resazurin. Diaphorase reduces resazurin to the highly fluorescent resorufin with the concomitant oxidation of NADPH to NADP, both halting the IDH2 reaction by depleting the available cofactor pool and facilitating quantitation of the amount of cofactor remaining after a specific time period through quantitative production of an easily detected fluorophore.
The test compound is then incubated for 16 hrs at room temperature with the enzyme and cofactors before starting the IDH2 reaction with the addition of 10 μl of substrate mix containing 8 mM α-KG (final concentration 1.6 mM) in the buffer described above. After a further 1 hour of incubation at room temperature, the reaction is halted and the remaining NADPH measured through conversion of resazurin to resorufin by the addition of 25 μl Stop Mix (36 μg/ml diaphorase enzyme and 60 μM resazurin; in buffer).

[8] = biological target: IDH1 wt/IDH1 R132C heterodimer (Homo sapiens (Human), UniProt O75874, R132C); assay: In vitro assay for IDH1m R132C inhibitors, IDH1 wt/IDH1 R132C heterodimer, NADPH depletion (diaphorase/resazurin); format: biochemical; settings: NADPH/NADP
Experimental: The following describes the experimental procedures that can be used to obtain data on columns 2 and 4 of Table 4 and column 2 of Table 5.
In the primary reaction, the reduction of α-KG acid to 2-HG is accompanied by a concomitant oxidation of NADPH to NADP. The amount of NADPH remaining at the end of the reaction time is measured in a secondary diaphorase/resazurin reaction in which the NADPH is consumed in a 1:1 molar ratio with the conversion of resazurin to the highly fluorescent resorufin.
The mixture of compound, enzyme, and cofactor is pre-incubated at room temperature for 1 hr prior to the addition of alpha-ketoglutarate. To perform the secondary reaction, 10 uL of 1× buffer containing 36 μg/ml diaphorase and […] resazurin is added to the primary reaction and incubated for a further 5 minutes at 25° C. Florescence is read on a Spectramax platereader at Ex 544 Em 590. Compounds or compound dilutions are prepared in 100% DMSO concentration and diluted 1:50 into the final reaction. […] IC50s are determined.
IDH1 or IDH2 wildtype (wt) and mutant heterodimers are expressed and purified by methods known in the art. For example, IDH1wt/R132m heterodimer is expressed and purified as follows. Co-expression of IDH1wt-his and IDH1R132C-flag is carried out in sf9 insect cells. Cells (25 g) are resuspended in 250 ml of 50 mM Tirs, 500 mM NaCl, pH7.4, at 4° C. with stirring. Cells are disrupted with 4 passes through an M-Y110 Micro fluidizer (Microfluidics) set to 500 psi, and then centrifuged at 22,000 rcf for 20 min at 4° C. The supernatant is harvested and loaded at 15 cm/h on a Histrap FF 5*1 ml column (GE) which is equilibrated with 50 mM Tirs, 500 mM NaCl, pH7.4. Host cell contaminants are removed by washing the column with equilibration buffer followed by equilibration buffer containing 20 mM imidazole and 60 mM imidazole to baseline. IDH1wt-his homodimer and IDH1wt-his/IDH1R132C-flag are eluted by equilibration buffer containing 250 mM imidazole. Fractions eluted by 250 mM imidazole are pooled together and loaded at 15 cm/h onto a column pre-packed with 10 ml ANTI-FLAG® M2 Affinity Gel (Sigma), the column is equilibrated with 50 mM Tris, 500 mM NaCl, pH7.4. After washing with equilibration buffer, IDH1wt-his/IDH1R132C-flag heterodimer is eluted by equilibration buffer containing flag peptide (0.2 mg/ml). Aliquots of IDH1wt-his/IDH1R132C-flag are flash frozen in liquid N2 and stored at −80° C. Same conditions are used for the purification of IDH1wt-his/IDH1R132H-flag.

[9] = IDH1 wt/R132H heterodimer, NADPH/NADP, not saturated, read-out: IDH1 wt/R132H NADPH/NADP IC50 not saturated
[10] = IDH1 wt/IDH1 R132H heterodimer, 300 μM NADP (saturated), read-out: IDH1 wt/R132H NADPH/NADP IC50 saturated

T1 sequence (P48735 40-452 R140Q): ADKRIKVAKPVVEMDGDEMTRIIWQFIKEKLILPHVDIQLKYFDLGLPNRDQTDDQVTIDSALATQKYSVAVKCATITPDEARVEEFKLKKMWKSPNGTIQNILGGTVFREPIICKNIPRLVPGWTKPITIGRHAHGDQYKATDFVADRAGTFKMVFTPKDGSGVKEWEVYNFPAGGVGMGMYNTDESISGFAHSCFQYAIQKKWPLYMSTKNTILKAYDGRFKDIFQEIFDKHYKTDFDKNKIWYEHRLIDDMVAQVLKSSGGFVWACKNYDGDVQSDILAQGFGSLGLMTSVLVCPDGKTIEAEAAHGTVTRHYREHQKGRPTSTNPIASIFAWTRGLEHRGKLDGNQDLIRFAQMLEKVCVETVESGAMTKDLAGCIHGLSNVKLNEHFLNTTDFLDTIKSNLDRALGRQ
Chain of IDH1-R132H homodimer enzyme (O75874 whole entry R132H): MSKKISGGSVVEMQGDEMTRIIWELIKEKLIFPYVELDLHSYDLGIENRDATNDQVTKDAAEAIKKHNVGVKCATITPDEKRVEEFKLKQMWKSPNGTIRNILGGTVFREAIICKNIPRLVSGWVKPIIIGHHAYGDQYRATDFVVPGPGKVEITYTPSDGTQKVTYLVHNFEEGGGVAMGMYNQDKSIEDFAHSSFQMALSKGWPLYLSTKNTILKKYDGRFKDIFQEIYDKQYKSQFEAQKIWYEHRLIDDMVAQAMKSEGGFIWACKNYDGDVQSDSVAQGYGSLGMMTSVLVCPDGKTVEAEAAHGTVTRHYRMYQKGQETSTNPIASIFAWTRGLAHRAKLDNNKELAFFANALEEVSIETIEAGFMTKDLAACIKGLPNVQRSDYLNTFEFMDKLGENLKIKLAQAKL
Chain of IDH1 wt/IDH1 R132H heterodimer (O75874 whole entry R132H): as above
Chain of IDH1 wt/IDH1 R132H heterodimer (O75874 whole entry, stated change not applied): as the sequence (O75874 whole entry R132H) above, with H132R counted along it
Chain of IDH1 wt/IDH1 R132C heterodimer (O75874 whole entry R132C): as the sequence (O75874 whole entry R132H) above, with H132C counted along it
Chain of IDH1 wt/IDH1 R132C heterodimer (O75874 whole entry, stated change not applied): as the sequence (O75874 whole entry R132H) above, with H132R counted along it
Chain of IDH1-R132C homodimer enzyme (O75874 whole entry R132C): as the sequence (O75874 whole entry R132H) above, with H132C counted along it

Compound	IC50 [1, 9] [nM]	IC50 [2] [nM]	IC50 [3] [nM]	IC50 [4] [nM]	IC50 (IDH2 R140Q [5]) [nM]	IC50 [6] [nM]	IC50 (IDH2 R140Q [7]) [nM]	IC50 [8] [nM]	IC50 [1, 10] [nM]
N#CC1(c2cc(Nc3nc(N[C@H]4CCC(F)(F)C4)nc(-c4cccc(C(F)(F)F)n4)n3)ccn2)CC1 [Compound 133]	< 50	50 to 100	< 50	100 to 1000	< 50	< 50	–	–	–
N#CC1(c2cc(Nc3nc(N[C@@H]4CCC(F)(F)C4)nc(-c4cccc(C(F)(F)F)n4)n3)ccn2)CC1 [Compound 137]	< 50	< 50	< 50	100 to 1000	< 50	< 50	–	–	–
FC1(F)CC[C@H](Nc2nc(Nc3ccnc(C(F)(F)F)c3)nc(-c3cccc(C(F)(F)F)n3)n2)C1 [Compound 158]	< 50	50 to 100	< 50	100 to 1000	< 50	< 50	–	–	–
N#CC1(c2cc(Nc3nc(N[C@H]4CCC(F)(F)C4)nc(-n4ccc(C(F)(F)F)n4)n3)ccn2)CC1 [Compound 174]	< 50	< 50	< 50	50 to 100	< 50	< 50	–	–	–
FC1(F)CC(Nc2nc(Nc3ccnc(C(F)(F)F)c3)nc(-c3cccc(C(F)(F)F)n3)n2)C1 [Compound 190]	< 50	100 to 1000	< 50	> 1000	< 50	< 50	–	–	–
C[C@@H](Nc1nc(NC2C3CC4CC(C3)CC2C4)nc(-c2cccc(C(F)(F)F)n2)n1)C1CC1 (some centres unmarked) [Compound 234]	< 50	100 to 1000	–	–	–	–	100 to 1000	–	–
CC(COC(C)C)Nc1nc(N[C@H](C)C2CC2)nc(-c2cccc(C(F)(F)F)n2)n1 (some centres unmarked) [Compound 241]	< 50	100 to 1000	–	–	–	–	50 to 100	100 to 1000	–
C[C@@H](Nc1nc(NCCOc2ccccc2)nc(-c2cccc(C(F)(F)F)n2)n1)C1CC1 [Compound 246]	50 to 100	100 to 1000	50 to 100	–	50 to 100	–	< 50	50 to 100	–
CC(C)(O)CNc1nc(Nc2cccc(Cl)c2)nc(-c2cccc(C(F)(F)F)n2)n1 [Compound 248]	50 to 100	–	< 50	–	100 to 1000	–	< 50	100 to 1000	–
C[C@@H](Nc1nc(NCC(C)(C)C#N)nc(-c2cccc(C(F)(F)F)n2)n1)C1CC1 [Compound 262]	100 to 1000	> 1000	–	–	–	–	100 to 1000	100 to 1000	–
FC1(F)CC2(CC(Nc3nc(NC4CC5(C4)CC(F)(F)C5)nc(-c4cccc(Cl)n4)n3)C2)C1 [Compound 265]	100 to 1000	> 1000	–	–	–	–	100 to 1000	100 to 1000	–
CC(C)(C#N)CNc1nc(Nc2ccnc(C(C)(F)F)c2)nc(-c2cccc(C(F)(F)F)n2)n1 [Compound 267]	100 to 1000	> 1000	< 50	–	< 50	–	50 to 100	100 to 1000	–
CC(CC#N)Nc1nc(NC(C)CC#N)nc(-c2cccc(Cl)n2)n1 (centres unmarked) [Compound 271]	100 to 1000	100 to 1000	–	–	–	–	100 to 1000	100 to 1000	–
CC(C)(C)OC(=O)N1CCC(Nc2nc(NC3CCC(F)(F)CC3)nc(-c3cccc(C(F)(F)F)n3)n2)CC1 [Compound 274]	100 to 1000	> 1000	–	–	–	–	100 to 1000	100 to 1000	–
CC(C)(C)Nc1nc(Nc2ccnc(C(C)(F)F)c2)nc(-c2nccc(C(F)(F)F)n2)n1 [Compound 289]	100 to 1000	> 1000	< 50	–	< 50	–	50 to 100	≥ 1000	–
CC(C)Nc1nc(Nc2ccnc(C(C)(F)F)c2)nc(-c2nccc(C(F)(F)F)n2)n1 [Compound 298]	100 to 1000	> 1000	< 50	–	< 50	–	50 to 100	≥ 1000	–
CC(C)(O)CNc1nc(Nc2cc(F)cc(F)c2)nc(-c2nccc(C(F)(F)F)n2)n1 [Compound 325]	> 1000	–	< 50	–	< 50	–	50 to 100	≥ 1000	–
N#CC1(c2cc(Nc3nc(N[C@@H]4CCC(F)(F)C4)nc(-n4ccc(C(F)(F)F)n4)n3)ccn2)CC1 [Compound 350]	–	< 50	< 50	50 to 100	< 50	< 50	–	–	< 50
FC1(F)CC[C@H](Nc2nc(Nc3ccnc(C(F)(F)F)c3)nc(-n3ccc(C(F)(F)F)n3)n2)C1 [Compound 393]	–	50 to 100	< 50	100 to 1000	< 50	< 50	–	–	< 50
C[C@@H](Nc1nc(Nc2ccnc(C(F)(F)F)c2)nc(-n2ccc(C(F)(F)F)n2)n1)C(F)(F)F [Compound 400]	–	100 to 1000	< 50	100 to 1000	< 50	< 50	–	–	< 50
C[C@@H](Nc1cc(NC2CCC(F)(F)CC2)nc(-c2cccc(Cl)n2)n1)C(F)(F)F [Compound 418]	50 to 100	–	–	–	–	–	< 50	–	–
